From ChEMBL document CHEMBL1201862, “PubChem BioAssay data set” (2004)
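Interpolation was linear, between the two tested concentrations surrounding the appropriate level; five concentrations were tested over 48 hours in 96-well plates. At the GI50, growth is halved.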 Calls of active or inactive are those of the source. Rule as the data show it: active = GI50 up to about 1.1 µM and inactive = higher.

How the values were obtained:
Experiment in all cases: inhibition of tumour cell growth, NCI panel, 48 h
HOP-62 = system: HOP-62
Malme-3M = system: Malme-3M
M14 = system: M14
SF-295 = system: SF-295
UACC-257 = system: UACC-257
HOP-92 = system: HOP-92
HT-29 = system: HT-29
UO-31 = system: UO-31
M19-MEL = system: M19-MEL
HCT-15 = system: HCT-15
NCI-H460 = system: NCI-H460
SNB-75 = system: SNB-75
SK-MEL-28 = system: SK-MEL-28
OVCAR-5 = system: OVCAR-5
EKVX = system: EKVX
LOX IMVI = system: LOX IMVI
OVCAR-8 = system: OVCAR-8
SW-620 = system: SW-620
RPMI-8226 = system: RPMI-8226
PC-3 = system: PC-3

Structure (SMILES) | GI50 (HOP-62) | GI50 (Malme-3M) | GI50 (M14) | GI50 (SF-295) | GI50 (UACC-257) | GI50 (HOP-92) | GI50 (HT-29) | GI50 (UO-31) | GI50 (M19-MEL) | GI50 (HCT-15) [µM] | GI50 (NCI-H460) | GI50 (SNB-75) | GI50 (SK-MEL-28) | GI50 (OVCAR-5) | GI50 (EKVX) | GI50 (LOX IMVI) | GI50 (OVCAR-8) | GI50 (SW-620) | GI50 (RPMI-8226) | GI50 (PC-3)
CCCCCCCCCCCCn1[nH]c(C)c(C(=S)SCCCCCCCC)c1=O | 50.1 µM (inactive) | > 100 µM (inactive) | 56.1 µM (inactive) | > 63 µM (inactive) | 41.8 µM (inactive) | > 100 µM (inactive) | 76.2 µM (inactive) | 60.3 µM (inactive) | 23.6 µM (inactive) | 21 | 61.4 µM (inactive) | > 100 µM (inactive) | > 100 µM (inactive) | > 100 µM (inactive) | 43.9 µM (inactive) | 48.8 µM (inactive) | 30.7 µM (inactive) | 35.2 µM (inactive) | – | –
COc1ccc([C@H]2CC(=O)NCCCCN2)cc1 | > 100 µM (inactive) | > 100 µM (inactive) | > 100 µM (inactive) | > 100 µM (inactive) | > 100 µM (inactive) | 57.1 µM (inactive) | > 100 µM (inactive) | > 100 µM (inactive) | > 100 µM (inactive) | > 100 | > 100 µM (inactive) | 55.2 µM (inactive) | > 100 µM (inactive) | > 100 µM (inactive) | > 100 µM (inactive) | – | > 100 µM (inactive) | – | > 100 µM (inactive) | –
COC(=O)C(C(=O)C(=O)Nc1nc2ccc([N+](=O)[O-])cc2s1)c1nc2ccc(Cl)cc2nc1O (stereo not given) | > 100 µM (inactive) | > 100 µM (inactive) | > 100 µM (inactive) | > 100 µM (inactive) | > 100 µM (inactive) | – | > 100 µM (inactive) | > 100 µM (inactive) | > 100 µM (inactive) | > 100 | > 100 µM (inactive) | 52 µM (inactive) | > 100 µM (inactive) | > 100 µM (inactive) | > 100 µM (inactive) | > 100 µM (inactive) | > 100 µM (inactive) | > 100 µM (inactive) | > 100 µM (inactive) | –
ClC(/N=N/c1ccccc1)=N/Nc1ccccc1 | > 100 µM (inactive) | > 100 µM (inactive) | – | 53.8 µM (inactive) | > 100 µM (inactive) | > 100 µM (inactive) | > 100 µM (inactive) | – | > 100 µM (inactive) | – | > 100 µM (inactive) | – | > 100 µM (inactive) | > 100 µM (inactive) | 96.8 µM (inactive) | 58.5 µM (inactive) | > 100 µM (inactive) | 31.8 µM (inactive) | – | –
Cc1ccc(/N=N/c2ccc(N(CCC#N)CCC#N)cc2C)c(Br)c1 | 16.6 µM (inactive) | 44.2 µM (inactive) | 20.5 µM (inactive) | 18.7 µM (inactive) | 26 µM (inactive) | – | 3.53 µM (inactive) | 16.9 µM (inactive) | 25.4 µM (inactive) | 2.78 | – | 11.3 µM (inactive) | 51.3 µM (inactive) | 56 µM (inactive) | 41 µM (inactive) | 3.33 µM (inactive) | 49.3 µM (inactive) | 21.9 µM (inactive) | 4.33 µM (inactive) | –
NC(=O)N/N=C(\CC1OC(=O)c2ccccc21)c1ccco1 (stereo not given) | – | > 100 µM (inactive) | > 100 µM (inactive) | > 100 µM (inactive) | > 100 µM (inactive) | > 100 µM (inactive) | > 100 µM (inactive) | > 100 µM (inactive) | > 100 µM (inactive) | > 100 | > 100 µM (inactive) | > 100 µM (inactive) | > 100 µM (inactive) | > 100 µM (inactive) | > 100 µM (inactive) | > 100 µM (inactive) | – | > 100 µM (inactive) | – | –
CCN(CC)CCn1c2ccccc2c(=O)c2c(OC)ccc(OC)c21 | > 100 µM (inactive) | 77.4 µM (inactive) | > 100 µM (inactive) | 61.2 µM (inactive) | 45.8 µM (inactive) | > 94.2 µM (inactive) | 46.9 µM (inactive) | 43.9 µM (inactive) | 65 µM (inactive) | 57.5 | 41.9 µM (inactive) | – | – | 99.5 µM (inactive) | > 100 µM (inactive) | 36.5 µM (inactive) | 48.4 µM (inactive) | 6.59 µM (inactive) | 92.3 µM (inactive) | –
CC(=O)c1ccc2c(c1)CC1(C2)Cc2cc3c(cc2C1=O)CCC3 (stereo not given) | 28 µM (inactive) | 13.3 µM (inactive) | 15 µM (inactive) | 21.8 µM (inactive) | 15 µM (inactive) | 25.9 µM (inactive) | 15.7 µM (inactive) | 26.1 µM (inactive) | – | 29 | 26.1 µM (inactive) | 15.6 µM (inactive) | 24.6 µM (inactive) | 30.6 µM (inactive) | 25.2 µM (inactive) | 17.7 µM (inactive) | 16.1 µM (inactive) | 32.6 µM (inactive) | 11.1 µM (inactive) | 19.2 µM (inactive)
O=C(N/C(=C\c1ccc(Oc2ccc(Cl)c(Cl)c2)cc1)c1nc2ccccc2[nH]1)c1ccccc1 | – | 20.9 µM (inactive) | 19.5 µM (inactive) | 15.1 µM (inactive) | – | 10.4 µM (inactive) | 15.5 µM (inactive) | 14.1 µM (inactive) | 27.6 µM (inactive) | 23.2 | – | – | 18.4 µM (inactive) | 22.4 µM (inactive) | 22 µM (inactive) | – | 14.6 µM (inactive) | 16.6 µM (inactive) | – | –
Cc1cc2ccccc2c[n+]1CC(O)C[n+]1cc2ccccc2cc1C | 82.6 µM (inactive) | > 100 µM (inactive) | > 100 µM (inactive) | 20.1 µM (inactive) | > 100 µM (inactive) | > 100 µM (inactive) | > 100 µM (inactive) | > 100 µM (inactive) | – | > 100 | > 100 µM (inactive) | > 100 µM (inactive) | > 100 µM (inactive) | > 100 µM (inactive) | > 100 µM (inactive) | > 100 µM (inactive) | > 100 µM (inactive) | > 100 µM (inactive) | > 100 µM (inactive) | > 100 µM (inactive)
COC(=O)C1=C(C)NC(C)=C([N+](=O)[O-])C1c1cccc(NO)c1 (stereo not given) | 9.44 µM (inactive) | 4.31 µM (inactive) | 3.44 µM (inactive) | 3.79 µM (inactive) | 4.61 µM (inactive) | 3.6 µM (inactive) | 2.86 µM (inactive) | 2.96 µM (inactive) | – | 2.84 | 3.37 µM (inactive) | 6.89 µM (inactive) | 4.92 µM (inactive) | 14.7 µM (inactive) | 4.34 µM (inactive) | 3.5 µM (inactive) | 5.81 µM (inactive) | 4.17 µM (inactive) | 2.51 µM (inactive) | 2.94 µM (inactive)
NS(=O)(=O)c1cc2c(cc1Cl)N=C(CCC(=O)O)NS2(=O)=O | > 100 µM (inactive) | > 100 µM (inactive) | > 100 µM (inactive) | > 100 µM (inactive) | > 100 µM (inactive) | > 100 µM (inactive) | > 100 µM (inactive) | > 100 µM (inactive) | – | > 100 | > 100 µM (inactive) | > 100 µM (inactive) | > 100 µM (inactive) | > 100 µM (inactive) | > 100 µM (inactive) | > 100 µM (inactive) | > 100 µM (inactive) | > 100 µM (inactive) | > 100 µM (inactive) | > 100 µM (inactive)
CCOC(=O)c1ccc(C(=O)OCC)n1-c1cc2cc(c1)CSCc1cc(cc(-n3c(C(=O)OCC)ccc3C(=O)OCC)c1)CSC2 | > 10 µM (inactive) | > 10 µM (inactive) | > 10 µM (inactive) | > 10 µM (inactive) | > 10 µM (inactive) | > 10 µM (inactive) | > 10 µM (inactive) | > 10 µM (inactive) | – | > 10 | > 10 µM (inactive) | > 10 µM (inactive) | > 10 µM (inactive) | > 10 µM (inactive) | > 10 µM (inactive) | > 10 µM (inactive) | > 10 µM (inactive) | > 10 µM (inactive) | > 10 µM (inactive) | > 10 µM (inactive)
CCC(CC)n1c(C)nc2c1C(=O)c1ccccc1C2=O | 33.4 µM (inactive) | 26.1 µM (inactive) | 63.1 µM (inactive) | 39.4 µM (inactive) | 24 µM (inactive) | 22.5 µM (inactive) | 33.2 µM (inactive) | 19.5 µM (inactive) | 14.9 µM (inactive) | 9.18 | 20.7 µM (inactive) | 20.6 µM (inactive) | 49.3 µM (inactive) | – | 70.5 µM (inactive) | 19.5 µM (inactive) | 40.5 µM (inactive) | 52.2 µM (inactive) | – | –
COc1cc(C2c3cc4c(cc3OC(NC3CCCCC3)C2C)OCO4)cc(OC)c1OC (stereo not given) | 2.38 µM (inactive) | 0.321 µM (active) | 0.508 µM (active) | 0.203 µM (active) | 46.8 µM (inactive) | 2.65 µM (inactive) | 0.383 µM (active) | 0.515 µM (active) | – | 0.543 | 0.488 µM (active) | 0.223 µM (active) | 21.8 µM (inactive) | 3.03 µM (inactive) | 4.47 µM (inactive) | 0.617 µM (active) | 0.845 µM (active) | 0.34 µM (active) | 0.403 µM (active) | 0.382 µM (active)
CC(C)c1cc(C(C)C)c(P2(=O)CC3C(Cl)(Cl)C3(C)C2)c(C(C)C)c1 (stereo not given) | 10.3 µM (inactive) | 17.5 µM (inactive) | 8.71 µM (inactive) | 7.31 µM (inactive) | 7.96 µM (inactive) | 12.2 µM (inactive) | 9.33 µM (inactive) | 1.86 µM (inactive) | – | 9.53 | 11.5 µM (inactive) | 11.6 µM (inactive) | 15.8 µM (inactive) | 16.3 µM (inactive) | 15.8 µM (inactive) | 6.68 µM (inactive) | 7.67 µM (inactive) | 7.55 µM (inactive) | 3.24 µM (inactive) | 6.7 µM (inactive)
